Reference: patent US20090137652A1, “METHODS FOR NEUROPROTECTION” (priority 2005, published 2009)

Test system: rats subjected to li-pilo SE
Assay: Quantification of cell densities 14 days after lithium-pilocarpine SE (Example 2)
Format: in vivo, rat
Details: 14 days after SE
Method: All rats received lithium chloride (3 meq/kg, i.p., Sigma, St Louis, Mo., U.S.A.) and about 20 h later, all animals received also methylscopolamine bromide (1 mg/kg, s.c., Sigma) that was administered to limit the peripheral effects of the convulsant. SE was induced by injecting pilocarpine hydrochloride (25 mg/kg, s.c., Sigma) 30 min after methylscopolamine. The effects of increasing doses of TC (RWJ) were studied in 5 groups of rats. […] The control group received vehicle instead of pilocarpine and TC.
At the moment, neuronal counting is still in progress in the second group of animals studied for epileptogenesis and long-term counting and the data concerning that part of the study will not be included in the present report. For neuronal counting, animals were deeply anesthetized with […] pentobarbital (Dolethal®, Vetoquinol, Lure, France). Brains were then removed and frozen. Serial 20 μm slices were cut in a cryostat, air-dried during several days before thionine staining. […] The grid of counting was placed on a well defined area of the cerebral structure of interest and counting was carried out with a microscopic enlargement of 200- or 400-fold defined for each single cerebral structure. Cell counts were performed twice on each side of three adjacent sections for each region by a single observer unaware of the animal's treatment. The number of cells obtained in the 12 counted fields in each cerebral structure was averaged. This procedure was used to minimize the potential errors that could result from double counting leading to overestimation of cell numbers. […] Counts involved only neurons with cell bodies larger than 10 μm. Cells with small cell bodies were considered as glial cells and were not counted.
For neuronal damage and epileptogenesis, statistical analysis between groups was performed by means of a one-way analysis of variance followed by a post-hoc Dunnett or Fisher test using the Statistica software.

What does the source list for `NC(=O)OC[C@@H](O)c1ccccc1Cl` [Formula 7]?
neuronal drop out, layer II of the dorsal piriform cortex (TC 60 mg/kg, significant vs DZP): 25%; damage remaining, ventral entorhinal cortex layer II (TC 90 mg/kg): 4%; damage remaining, ventral entorhinal cortex layers III/IV (TC 90 mg/kg): 17%; neuronal density as % of control levels, piriform cortex (TC 120 mg/kg): 78-96%; neurons surviving, all parts of the entorhinal cortex (TC 120 mg/kg): 85-94%; cell loss, CA1 pyramidal cell layer (TC30, 60 or 90 rats, significant vs DZP): 36-47%; neuronal loss, hilus of the dentate gyrus (TC120 group, not significant vs DZP): 53%; cell loss, CA1 pyramidal cell layer (TC120 group, significant vs DZP): 12%; neuronal drop out, thalamic nuclei (TC120 rats): 4-19%; number of neurons as % of the control level, all amygdala nuclei (TC highest dose (120 mg/kg)): 86-99%; number of neuronal cell bodies, Amygdala, Basolateral (pilo-TC30 (30 mg/kg), n = 8): 27.3 ± 4.9**°; number of neuronal cell bodies, Amygdala, Medial, dorsal anterior (pilo-TC30 (30 mg/kg), n = 8): 46.8 ± 5.0; number of neuronal cell bodies, Amygdala, Medial, ventral posterior (pilo-TC30 (30 mg/kg), n = 8): 22.3 ± 1.8; number of neuronal cell bodies, Cerebral cortex, Entorhinal, layer II, dorsal (pilo-TC30 (30 mg/kg), n = 8): 23.4 ± 0.6; number of neuronal cell bodies, Cerebral cortex, Entorhinal, layer II, ventral (pilo-TC30 (30 mg/kg), n = 8): 22.7 ± 0.9; number of neuronal cell bodies, Cerebral cortex, Entorhinal, layer III/IV, dorsal (pilo-TC30 (30 mg/kg), n = 8): 22.3 ± 0.5; number of neuronal cell bodies, Cerebral cortex, Entorhinal, layer III/IV, ventral (pilo-TC30 (30 mg/kg), n = 8): 13.2 ± 1.9; number of neuronal cell bodies, Cerebral cortex, Piriform, layer II, dorsal (pilo-TC30 (30 mg/kg), n = 8): 15.7 ± 2.9; number of neuronal cell bodies, Cerebral cortex, Piriform, layer II, ventral (pilo-TC30 (30 mg/kg), n = 8): 7.2 ± 3.8; number of neuronal cell bodies, Cerebral cortex, Piriform, layer III (pilo-TC30 (30 mg/kg), n = 8): 1.8 ± 1.8; number of neuronal cell bodies, Hippocampus, CA1 area (pilo-TC30 (30 mg/kg), n = 8): 39.3 ± 4.4**°°; number of neuronal cell bodies, Hippocampus, CA3 area (pilo-TC30 (30 mg/kg), n = 8): 35.7 ± 1.8; number of neuronal cell bodies, Hippocampus, Hilus (pilo-TC30 (30 mg/kg), n = 8): 33.0 ± 3.2; number of neuronal cell bodies, Thalamus, Central medial (pilo-TC30 (30 mg/kg), n = 8): 75.6 ± 7.7; number of neuronal cell bodies, Thalamus, Dorsolateral, medial, dorsal (pilo-TC30 (30 mg/kg), n = 8): 64.2 ± 9.3**°°; number of neuronal cell bodies, Thalamus, Dorsolateral, ventral lateral (pilo-TC30 (30 mg/kg), n = 8): 8.8 ± 2.8; number of neuronal cell bodies, Thalamus, Mediodorsal central (pilo-TC30 (30 mg/kg), n = 8): 26.9 ± 0.6; number of neuronal cell bodies, Thalamus, Mediodorsal lateral (pilo-TC30 (30 mg/kg), n = 8): 20.5 ± 0.7; number of neuronal cell bodies, Thalamus, Mediodorsal medial (pilo-TC30 (30 mg/kg), n = 8): 11.5 ± 2.5; number of neuronal cell bodies, Amygdala, Basolateral (pilo-TC60 (60 mg/kg), n = 11): 27.8 ± 4.3**°°; number of neuronal cell bodies, Amygdala, Medial, dorsal anterior (pilo-TC60 (60 mg/kg), n = 11): 58.4 ± 2.8**°; number of neuronal cell bodies, Amygdala, Medial, ventral posterior (pilo-TC60 (60 mg/kg), n = 11): 26.2 ± 2.9; number of neuronal cell bodies, Cerebral cortex, Entorhinal, layer II, dorsal (pilo-TC60 (60 mg/kg), n = 11): 23.9 ± 0.5; number of neuronal cell bodies, Cerebral cortex, Entorhinal, layer II, ventral (pilo-TC60 (60 mg/kg), n = 11): 23.3 ± 0.8; number of neuronal cell bodies, Cerebral cortex, Entorhinal, layer III/IV, dorsal (pilo-TC60 (60 mg/kg), n = 11): 23.2 ± 0.8; number of neuronal cell bodies, Cerebral cortex, Entorhinal, layer III/IV, ventral (pilo-TC60 (60 mg/kg), n = 11): 16.5 ± 2.2; number of neuronal cell bodies, Cerebral cortex, Piriform, layer II, dorsal (pilo-TC60 (60 mg/kg), n = 11): 27.5 ± 2.8**°°; number of neuronal cell bodies, Cerebral cortex, Piriform, layer II, ventral (pilo-TC60 (60 mg/kg), n = 11): 13.7 ± 4.2; number of neuronal cell bodies, Cerebral cortex, Piriform, layer III (pilo-TC60 (60 mg/kg), n = 11): 6.4 ± 2.3; number of neuronal cell bodies, Hippocampus, CA1 area (pilo-TC60 (60 mg/kg), n = 11): 31.9 ± 4.4**°°; number of neuronal cell bodies, Hippocampus, CA3 area (pilo-TC60 (60 mg/kg), n = 11): 31.6 ± 1.4; number of neuronal cell bodies, Hippocampus, Hilus (pilo-TC60 (60 mg/kg), n = 11): 32.8 ± 3.3; number of neuronal cell bodies, Thalamus, Central medial (pilo-TC60 (60 mg/kg), n = 11): 83.7 ± 9.6; number of neuronal cell bodies, Thalamus, Dorsolateral, medial, dorsal (pilo-TC60 (60 mg/kg), n = 11): 77.5 ± 3.9**°°
